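1) Cells in 96-well plates. 2) Compound, 48 h, 5 concentrations. 3) Linear interpolation between surrounding doses. 4) Unreached endpoint = highest concentration. Abbreviation: GI50, concentration required for 50% inhibition of growth.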 Active and inactive are the calls of the source. Cut-off read from the data, not from the text of the source: active = GI50 up to about 1.1 µM and inactive = higher.
Assays:
Test in all cases: inhibition of tumour cell growth, NCI panel, 48 h
[1] = test system: 786-0
[2] = test system: A498
[3] = test system: A549
[4] = test system: ACHN
[5] = test system: BT-549
[6] = test system: CAKI-1
[7] = test system: CCRF-CEM
[8] = test system: COLO 205
[9] = test system: DU-145
[10] = test system: EKVX
[11] = test system: HCC 2998
[12] = test system: HCT-116
[13] = test system: HCT-15
[14] = test system: HL-60
[15] = test system: HOP-62
[16] = test system: HOP-92
[17] = test system: HT-29
[18] = test system: Hs-578T
[19] = test system: IGROV-1
[20] = test system: K562
[21] = test system: KM12
[22] = test system: LOX IMVI
[23] = test system: M14
[24] = test system: MCF7
[25] = test system: MDA-MB-231
[26] = test system: MDA-MB-435
[27] = test system: MDA-N
[28] = test system: MOLT-4
[29] = test system: Malme-3M
[30] = test system: NCI-H226
[31] = test system: NCI-H23
[32] = test system: NCI-H460
[33] = test system: NCI-H522
[34] = test system: OVCAR-3
[35] = test system: OVCAR-4
[36] = test system: OVCAR-5
[37] = test system: OVCAR-8
[38] = test system: PC-3
[39] = test system: RPMI-8226
[40] = test system: RXF 393
[41] = test system: SF-268
[42] = test system: SF-295
[43] = test system: SF-539
[44] = test system: SK-MEL-28
[45] = test system: SK-MEL-2
[46] = test system: SK-MEL-5
[47] = test system: SK-OV-3
[48] = test system: SN12C
[49] = test system: SNB-19
[50] = test system: SNB-75
[51] = test system: SR
[52] = test system: SW-620
[53] = test system: T47D
[54] = test system: TK-10
[55] = test system: U-251
[56] = test system: UACC-257
[57] = test system: UACC-62

Which results are given for `CCOc1ccc(/C=C2\N=C(c3ccc([N+](=O)[O-])cc3)OC2=O)cc1`?
GI50 [1]: > 100 µM (inactive); GI50 [2]: > 100 µM (inactive); GI50 [3]: > 100 µM (inactive); GI50 [4]: > 100 µM (inactive); GI50 [5]: > 100 µM (inactive); GI50 [6]: > 100 µM (inactive); GI50 [7]: > 100 µM (inactive); GI50 [8]: > 100 µM (inactive); GI50 [9]: > 100 µM (inactive); GI50 [10]: > 100 µM (inactive); GI50 [11]: > 100 µM (inactive); GI50 [12]: > 100 µM (inactive); GI50 [13]: > 100 µM; GI50 [14]: > 100 µM (inactive); GI50 [15]: > 100 µM (inactive); GI50 [16]: > 100 µM (inactive); GI50 [17]: > 100 µM (inactive); GI50 [18]: > 100 µM (inactive); GI50 [19]: > 100 µM (inactive); GI50 [20]: > 100 µM (inactive); GI50 [21]: > 100 µM (inactive); GI50 [22]: > 100 µM (inactive); GI50 [23]: > 100 µM (inactive); GI50 [24]: > 100 µM (inactive); GI50 [25]: > 100 µM (inactive); GI50 [26]: > 100 µM (inactive); GI50 [27]: > 100 µM (inactive); GI50 [28]: > 100 µM (inactive); GI50 [29]: > 100 µM (inactive); GI50 [30]: > 100 µM (inactive); GI50 [31]: > 100 µM (inactive); GI50 [32]: > 100 µM (inactive); GI50 [33]: > 100 µM (inactive); GI50 [34]: > 100 µM (inactive); GI50 [35]: > 100 µM (inactive); GI50 [36]: > 100 µM (inactive); GI50 [37]: > 100 µM (inactive); GI50 [38]: > 100 µM (inactive); GI50 [39]: > 100 µM (inactive); GI50 [40]: > 100 µM (inactive); GI50 [41]: > 100 µM (inactive); GI50 [42]: > 100 µM (inactive); GI50 [43]: > 100 µM (inactive); GI50 [44]: > 100 µM (inactive); GI50 [45]: > 100 µM (inactive); GI50 [46]: > 100 µM (inactive); GI50 [47]: > 100 µM (inactive); GI50 [48]: > 100 µM (inactive); GI50 [49]: > 100 µM (inactive); GI50 [50]: > 100 µM (inactive); GI50 [51]: > 100 µM (inactive); GI50 [52]: > 100 µM (inactive); GI50 [53]: > 100 µM (inactive); GI50 [54]: > 100 µM (inactive); GI50 [55]: > 100 µM (inactive); GI50 [56]: > 100 µM (inactive); GI50 [57]: > 100 µM (inactive)

— ChEMBL document CHEMBL1201862, “PubChem BioAssay data set” (2004)
